Data taken from US5240927A, “Benzo[β]thiophen-3-yl piperazines as antipsychotic agents” (Hoechst-Roussel Pharmaceuticals Incorporated, priority 1992, dated 1993).
Like-named read-outs stand apart in the source and are kept apart here.

Test system: apomorphine-induced climbing
Assay: Climbing Mice Assay (block of apomorphine-induced climbing)
Assay type: in vivo, CK-1 male mice
Details: Mus musculus, ip, read-out: Antipsychotic Activity (Climbing Mice Assay) ED50
Procedure: The subject CK-1 male mice (23-27 grams) are group-housed under standard laboratory conditions. The mice are individually placed in wire mesh stick cages (4"×4" 10) and are allowed one hour for adaptation and exploration of the new environment.
For evaluation of climbing, three readings are taken at 10, 20 and 30 minutes after apomorphine administration according to the following scale: […]
Mice consistently climbing before the injection of apormorphine are discarded.
With full-developed apomorphine climbing, the animals are hanging onto the cage walls, rather motionless, over longer periods of time. By contrast, climbs due to mere motor stimulation usually last only a few seconds.
The climbing scores are individually totaled (maximal score; 6 per mouse over three readings) and the total score of the control group (vehicle intraperitioneally-apomorphine subcutaneously) is set to 100%.

Compound | ED50 (CK-1 male mice, compound i.p. 30 minutes prior to apomorphine 1.5 mg/kg s.c., readings at 10, 20 and 30 minutes, linear regression) [mg/kg] | ED50 [mg/kg]
COc1cc(C(C)=O)ccc1OCCCN1CCN(c2csc3cc(F)ccc23)CC1 [1-[4-[3-[4-(6-Fluorobenzo[b]thiophen-3-yl)-1-piperazinyl]propoxy]-3-methoxyphenyl]ethanone] | 1.42 | 
O=C(CCCN1CCC(O)(c2ccc(Cl)cc2)CC1)c1ccc(F)cc1 [Haloperidol] |  | 0.33
